Tested on: Canis familiaris
Assay: Toxicity in dog assessed as change in cardiovascular variables up to 5 mg/kg by telemetry study
Assay type: organism-based, Canis lupus familiaris, Heart
Design: dose 5 mg/kg
Conditions: in vivo

With `CCc1ccc(OCc2ccccc2C(=O)Nc2ccc3nc(C)cc(N)c3c2)cc1` as the compound, how does the Activity read?
The Activity was “Non-toxic”.

`O=C(NCCCN1CCC2(CC1)OCc1ccccc12)[C@H]1CCCN1Cc1ccccc1` was tested. Which Activity did it give?
Its Activity is “Non-toxic”.

`O[C@H]1C[C@H](CN2CC[C@H](c3ccc(F)cc3Cl)[C@@H](O)C2)Cc2cccnc21` was tested. Which Activity did it give?
Its Activity is “Non-toxic”.

`COC(=O)C1Cc2ccccc2N1C(=O)CCN1CCC2(CCc3ccccc32)CC1` (stereo not drawn) was tested. Which Activity did it give?
Its Activity is “Non-toxic”.

Which Activity does the source give for `CCN1CCN(c2cc3[nH]c(C(=O)[C@]4(C)CC[C@](C)(O)CC4)nc3cc2C)CC1` here?
The Activity was “Non-toxic”.

For `CN1CC(C(=O)NCCCN2CCC3(CCc4ccccc43)CC2)CC1=O` (stereo not drawn), which Activity is on record?
The Activity was “Non-toxic”.

How did the Activity turn out when `Cc1cccc2c1CC[C@H](CN1CCC(c3c(Cl)cccc3Cl)CC1)C[C@@H]2O` was run?
The Activity was “Non-toxic”.

How did the Activity turn out when `Cc1ccc2nc(NC(=O)c3ccc(Cl)cc3)nc(N[C@H]3CCCC[C@H]3NC(=N)N)c2c1` was run?
Its Activity is “Non-toxic”.
